Data reported in patent US20260118345A1, “METHOD OF EVALUATING INTERCELLULAR INTERACTIONS IN NEUROINFLAMMATION” (FUJIFILM Corporation, priority 2023, published 2026).

Columns and labels:
Assay type in all cases: cell-based, human
NF-κB [1] = assay: NF-κB localization by immunostaining after LPS stimulation, two-dimensional three-cell-type co-culture of astrocytes, neurons and microglia; conditions: R-7050 10 μmol/L with LPS 100 ng/ml
Protocol: (§1) Matrigel basement membrane matrix (Corning, 356234) diluted 120-fold with DMEM/F12 (Life technologies, 11320-033) was added to a 96-well plate at 65 μL/well and allowed to stand at 4° C. After 24 hours, the culture medium was replaced with a progenitor cell culture medium and used.
Astrocyte precursor cells (XCell Science, XCS-AP-001-1V) were seeded in a 96-well plate at a density of 5×10^4 cells/well and cultured under the conditions of 37° C. and 5% CO2. The next day, the culture medium was replaced with the differentiation-inducing culture medium and further cultured for 5 days to differentiate into astrocytes.
(§2) The neurons were produced by forcing expression of the Ngn2 gene from iPS cells (WO2014/148646A; and Zhang Y, et al., Neuron, 78:785-98, 2013), and the cells that had been frozen and stored were used. The cells that had been frozen and stored were thawed in a warm bath at 37° C., and after thawing, the cells were added to the co-culture medium and centrifuged at 600×g at room temperature for 5 minutes. After centrifugation, the supernatant was removed, the cells were suspended in 1 mL of the co-culture medium, and the number of cells was counted.
As the microglia, iPS cell-derived microglia (iCell (registered trademark) Microglia, FCDI, C1110) were used. The cells that had been frozen and stored were thawed in a warm bath at 37° C., and after thawing, the cells were added to the co-culture medium and centrifuged at 600×g at room temperature for 5 minutes. After centrifugation, the supernatant was removed, the cells were suspended in 1 mL of the co-culture medium, and the number of cells was counted.
The neurons and the microglia were mixed in a ratio of 3:1 and seeded on the astrocytes at 4×10^4 cells/well. The cells were cultured under the conditions of 37° C. and 5% CO2, and half of the culture medium was replaced three times a week.
Microglia were specifically stimulated by adding LPS (FUJIFILM Wako Pure Chemical Corporation, 124-05151) at 100 ng/mL to the two-dimensional co-culture that had been cultured for 4 weeks. The cells were fixed by treating, for 30 minutes, with a formaldehyde solution (FUJIFILM Wako Pure Chemical Corporation, 061-00416) diluted 10-fold with PBS(−) (FUJIFILM Wako Pure Chemical Corporation, 166-23555) without treatment, and at 0.5 hours, 1 hour, 3 hours, 6 hours, and 24 hours after the treatment.
In addition, in the two-dimensional co-culture that had been cultured for 19 days, LPS (FUJIFILM Wako Pure Chemical Corporation, 124-05151) was added at 100 ng/ml and R-7050 (Cayman Chemical Company, 16870), which is a TNFR1 inhibitor, was added at 10 μmol/L, and the effect of TNF-α on the intercellular interaction induced by LPS stimulation was evaluated. The cells were fixed by treating, for 30 minutes, with a formaldehyde solution (FUJIFILM Wako Pure Chemical Corporation, 061-00416) diluted 10-fold with PBS (−) (FUJIFILM Wako Pure Chemical Corporation, 166-23555) without treatment, and at 0.5 hours, 1 hour, 3 hours, 6 hours, and 24 hours after the treatment.
The fixed cells were washed with PBS (−), and blocking and permeabilization were performed by treating with a solution (1% BSA/0.2% Triton X-100) in which BSA (Sigma-Aldrich, A4161) and Triton (registered trademark) X-100 (BioVision, 2104-100) were diluted to 1% and 0.2% with PBS (−) for 30 minutes. […]

[2] = tested on: three-cell-type co-culture of neurons, astrocytes, and microglia; assay: Neural activity by calcium imaging (BPM), two-dimensional three-cell-type co-culture of neurons, astrocytes and microglia; conditions: 24 hours after stimulation (TNF-α 7.5 ng/mL or LPS 100 ng/mL)
Protocol: Matrigel basement membrane matrix (Corning, 356234) diluted 120-fold with DMEM/F12 (Life technologies, 11320-033) was added to a 96-well plate at 65 μL/well and allowed to stand at 4° C. After 24 hours, the culture medium was replaced with a progenitor cell culture medium and used. Astrocyte precursor cells (XCell Science, XCS-AP-001-1V) were seeded in a 96-well plate at a density of 6×10^4 cells/well, cultured under the conditions of 37° C. and 5% CO2, after culture medium was replaced with the differentiation induction culture medium, further cultured for 5 days to differentiate into astrocytes. […] After centrifugation, the supernatant was removed, the cells were suspended in 1 mL of the co-culture medium, and the number of cells was counted. […] After centrifugation, the supernatant was removed, the cells were suspended in 1 mL of the co-culture medium, and the number of cells was counted. […] In addition, at 24 hours after the stimulation with LPS or TNF-α, the neural activity was evaluated by calcium imaging. […] After incubating for 1 hour under conditions of 37° C. and 5% CO2, the solution was replaced with a warmed (37° C.) recording solution, and the fluorescence was measured for 10 minutes with FDSS (registered trademark)/μcell (Hamamatsu Photonics K. K., C13299). […]

NF-κB [3] = assay: NF-κB localization after TNF-α stimulation, two-dimensional two-cell-type co-culture of neurons and astrocytes; conditions: TNF-α 7.5 ng/mL; 3 hours after the stimulation
Protocol: as §1
Astrocyte precursor cells (XCell Science, XCS-AP-001-1V) were seeded in a 96-well plate at a density of 6×10^4 cells/well, cultured under the conditions of 37° C. and 5% CO2, after culture medium was replaced with the differentiation induction culture medium, further cultured for 5 days to differentiate into astrocytes.
as §2, with “forcibly expressing” for “forcing expression of”, “genes” for “gene”, “from the” for “from”, “cells” for “cells (WO2014/148646A; and Zhang Y, et al., Neuron, 78:785-98, 2013),”
In the two-cell-type co-culture, the neurons were seeded on the astrocytes at 3×10^4 cells/well. […]
After 3 hours of the stimulation with TNF-α, the cells were fixed by the method described in <1> of Test Example 1, and the localization of NF-κB was evaluated by the same method as in <1> of Test Example 1.

[4] = tested on: two-cell-type co-culture of neurons and astrocytes; assay: Neural activity by calcium imaging (BPM), two-dimensional two-cell-type co-culture of neurons and astrocytes; conditions: 24 hours after stimulation (TNF-α 7.5 ng/mL or LPS 100 ng/mL)
Protocol: Matrigel basement membrane matrix (Corning, 356234) diluted 120-fold with DMEM/F12 (Life technologies, 11320-033) was added to a 96-well plate at 65 μL/well and allowed to stand at 4° C. After 24 hours, the culture medium was replaced with a progenitor cell culture medium and used. Astrocyte precursor cells (XCell Science, XCS-AP-001-1V) were seeded in a 96-well plate at a density of 6×10^4 cells/well, cultured under the conditions of 37° C. and 5% CO2, after culture medium was replaced with the differentiation induction culture medium, further cultured for 5 days to differentiate into astrocytes. […] After centrifugation, the supernatant was removed, the cells were suspended in 1 mL of the co-culture medium, and the number of cells was counted. […] In addition, at 24 hours after the stimulation with LPS or TNF-α, the neural activity was evaluated by calcium imaging. […] After incubating for 1 hour under conditions of 37° C. and 5% CO2, the solution was replaced with a warmed (37° C.) recording solution, and the fluorescence was measured for 10 minutes with FDSS (registered trademark)/μcell (Hamamatsu Photonics K. K., C13299). The neural activity was evaluated by quantifying the number of peaks of calcium oscillation using Wave Checker Software (Hamamatsu Photonics K. K.).

Row | Molecule | activation of the microglia affecting other cells (intercellular interaction) (NF-κB [1]) | nuclear signals of NF-κB, co-localization with microglia marker IBA1 (NF-κB [1]; 1, 3, and 6 hours after the LPS stimulation) | nuclear translocation of NF-κB (NF-κB [1]; 1, 3, and 6 hours after the LPS stimulation, co-culture cultured 19 days) | BPM (the number of peaks of calcium oscillation per minute) as compared with the control [2] | nuclear translocation of NF-κB in GFAP-positive cells (astrocytes) (NF-κB [3]) | nuclear translocation of NF-κB in Neun-positive cells (neurons) (NF-κB [3]) | BPM (the number of peaks of calcium oscillation per minute) as compared with the control [4]
1 | FC(F)(F)c1nnc2c(Sc3ccccc3)nc3ccc(Cl)cc3n12 [R-7050] | suppressed | all co-localized with IBA1 | only some cells | – | – | – | –
2 | TNF-α | – | – | – | increase | occurred | not confirmed | increase
